We go through four compounds from US8889705B2, “Noscapine analogs and their use in treating cancers” (Emory University, priority 2007, dated 2014).

One may read the IC50 as the concentration at which inhibition is half-maximal. A high value points to weaker potency. What is called Kd is the concentration at which binding is half-saturated.

The test system of experiment [1] is MDA-MB-231 cells. Nature of the experiment: Sulforhodamine B cell proliferation assay. It is filed as cell-based. Particulars: Homo sapiens; MDA-MB-231, 72 hours, SRB. On the procedure:
(§1) Sulforhodamine B (SRB) assay: The cell proliferation assay was performed in 96-well plates as described previously. Adherent cells (MCF-7 and MDA-MB-231) were seeded in 96-well plates at a density of 5×10^3 cells per well. They were treated with increasing concentrations of the halogenated analogs the next day while in log-phase growth. After 72 hours of drug treatment, cells were fixed with 50% trichloroacetic acid and stained with 0.4% sulforhodamine B dissolved in 1% acetic acid. After 30 minutes, cells were then washed with 1% acetic acid to remove the unbound dye. The protein-bound dye was extracted with 10 mM Tris base to determine the optical density at 564-nm wavelength.

The target of experiment [2] is T1, tubulin.
T1 construct: other: 2 μM tubulin, 45 min at 37° C., double reciprocal plot; rate and extent of tubulin polymerization; other: 25 μM or 100 μM
To be noted: values with literature reference [18], [12], [43]; read-out: dissociation constant (Kd) for binding to tubulin; cited from earlier work.

Experiment [3] deals with tubulin. Particulars: even at 100 μM (Zhou et al., 2003); cited from earlier work.
For another experiment, the system named is CEM cells. The experiment is described as follows: In vitro cell proliferation MTS assay. Particulars: Homo sapiens, CCRF-CEM, 72 hours. It is filed as cell-based. On the procedure: (§2) Suspension cells (CEM, CEMNLB100 and CEM/VM-1-5) were cultured in RPMI-1640 media containing 10% FBS and then seeded into 96-well plates at a density of 5×10^3 cells per well and were treated with increasing gradient concentrations of 9-nitro-nos for 72 hours. Measurement of cell proliferation was performed colorimetrically by 3-(4,5-dimethylthiazol-2-yl)-5-(3-carboxymethoxyphenyl)-2-(4-sulphophenyl)-2H-tetrazolium, inner salt (MTS) assay, using the CellTiter96 AQueous One Solution Reagent (Promega, Madison, Wis.). Cells were exposed to MTS for 3 hours and absorbance was measured using a microplate reader (Molecular Devices, Sunnyvale, Calif.) at an optical density (OD) of 490 nm. The percentage of cell survival as a function of drug concentration for both the assays was then plotted to determine the IC50 value, which stands for the drug concentration needed to prevent cell proliferation by 50%.
as §2, with “(CEM)” for “(CEM, CEMNLB100 and CEM/VM-1-5)”, “were” for “were cultured in RPMI-1640 media containing 10% FBS and then”, “increasing” for “increasing gradient”, “all halogenated analogs” for “9-nitro-nos”
On the technique in general: Tetrazolium assays rely on reduction of a dye to a coloured formazan, in cell work by metabolically active cells.

Experiment [4] relates to MCF-7 cells. Nature of the experiment: Sulforhodamine B cell proliferation assay. The class given is cell-based, human. To be noted: MCF-7, 72 hours, SRB. On the procedure: as §1
In experiment [5] the test system is MCF-7 cells. Nature of the experiment: Cell cycle analysis (propidium iodide, flow cytometry). It is filed as cell-based, human. To be noted: for G0/G1 / G2/M / S / Sub-G1: MCF-7, 25 μM, mean ± S.E.M. On the procedure:
The flow cytometric evaluation of the cell cycle status was performed as described previously. Briefly, 2×10^6 cells were centrifuged, washed twice with ice-cold PBS, and fixed in 70% ethanol. Tubes containing the cell pellets were stored at 4° C. for at least 24 hours. Cells were then centrifuged at 1000×g for 10 min and the supernatant was discarded. The pellets were washed twice with 5 ml of PBS and then stained with 0.5 ml of propidium iodide (0.1% in 0.6% Triton-X in PBS) and 0.5 ml of RNase A (2 mg/ml) for 45 minutes in dark. Samples were then analyzed on a FACSCalibur flow cytometer (Beckman Coulter Inc., Fullerton, Calif.).

Another experiment has as its system CEM/VM-1-5 cells. Particulars: CEM/VM-1-5 (Morgan et al., 2000); cited from earlier work.
The test system of another experiment is CEM/VLB100 cells. Particulars: CEM/VLB100 (Beck and Cirtain, 1982); cited from earlier work.
The target of experiment [6] is T1, tubulin. Nature of the experiment: Tubulin binding assay (fluorescence titration, quenching of intrinsic tubulin fluorescence). To be noted: 2 μM tubulin, 45 min at 37° C., double reciprocal plot; read-out: dissociation constant (Kd) for binding to tubulin. Also on record: species or system mammalian. On the procedure: Fluorescence titration for determining the tubulin binding parameters was performed as described previously (Gupta and Panda, 2002). In brief, 9-nitro-nos (0-100 μM) was incubated with 2 μM tubulin in 25 mM PIPES, pH 6.8, 3 mM MgSO4 and 1 mM EGTA for 45 min at 37° C. The relative intrinsic fluorescence intensity of tubulin was then monitored in a JASCO FP-6500 spectrofluorometer (JASCO, Tokyo, Japan) using a cuvette of 0.3-cm path length, and the excitation wavelength was 295 nm. The fluorescence emission intensity of 9-nitro-nos at this excitation wavelength was negligible. A 0.3-cm path-length cuvette was used to minimize the inner filter effects caused by the absorbance of 9-nitro-nos at higher concentration ranges. In addition, the inner filter effects were corrected using a formula Fcorrected=Fobserved·antilog [(Aex+Aem)/2], where Aex is the absorbance at the excitation wavelength and Aem is the absorbance at the emission wavelength. The dissociation constant (Kd) was determined by the formula: 1/B=Kd/[free ligand]+1, where B is the fractional occupancy and [free ligand] is the concentration of free noscapine or 9-nitro-nos. The fractional occupancy (B) was determined by the formula B=ΔF/ΔFmax, where ΔF is the change in fluorescence intensity when tubulin and its ligand are in equilibrium and ΔFmax is the value of maximum fluorescence change when tubulin is completely bound with its ligand. ΔFmax was calculated by plotting 1/ΔF versus 1/ligand using total ligand concentration as the first estimate of free ligand concentration.
Fluorescence titration for determining the tubulin binding parameters was performed as described previously. In brief, 9-F-nos, 9-Cl-nos, 9-Br-nos or 9-I-nos (0-100 μM) was incubated with 2 μM tubulin in 25 mM PIPES, pH 6.8, 3 mM MgSO4, and 1 mM EGTA for 45 min at 37° C. The relative intrinsic fluorescence intensity of tubulin was then monitored in a JASCO FP-6500 spectrofluorometer (JASCO, Tokyo, Japan) using a cuvette of 0.3-cm path length, and the excitation wavelength was 295 nm. The fluorescence emission intensity of noscapine and its derivatives at this excitation wavelength was negligible. A 0.3-cm path-length cuvette was used to minimize the inner filter effects caused by the absorbance of these agents at higher concentration ranges. In addition, the inner filter effects were corrected using a formula F corrected=F observe·antilog [(Aex+Aem)/2], where Aex is the absorbance at the excitation wavelength and Aem is the absorbance at the emission wavelength. The dissociation constant (Kd) was determined by the formula: 1/B=Kd/[free ligand]+1, where B is the fractional occupancy and [free ligand] is the concentration of 9-F-nos, 9-Cl-nos, 9-Br-nos or 9-I-nos. The fractional occupancy (B) was determined by the formula B=ΔF/ΔFmax, where ΔF is the change in fluorescence intensity when tubulin and its ligand are in equilibrium and ΔFmax is the value of maximum fluorescence change when tubulin is completely bound with its ligand. ΔFmax was calculated by plotting 1/ΔF versus 1/[free ligand].

The subject of experiment [7] is MDA-MB-231 cells. The experiment is described as follows: DAPI staining, cell morphology by fluorescence microscopy. The class given is cell-based, human. Particulars: 25 μM, 72 hours. The protocol:
Cell morphology was evaluated by fluorescence microscopy following DAPI staining (Vectashield, Vector Labs, Inc., Burlingame, Calif.). MDA-MB-231 cells were grown on poly-L-lysine coated coverslips in 6-well plates and were treated with the halogenated analogs at 25 μM for 72 hours. After incubation, coverslips were fixed in cold methanol and washed with PBS, stained with DAPI, and mounted on slides. Images were captured using a BX60 microscope (Olympus, Tokyo, Japan) with an 8-bit camera (Dage-MTI, Michigan City, Ind.) and IP Lab software (Scanalytics, Fairfax, Va.). Apoptotic cells were identified by features characteristic of apoptosis (e.g. nuclear condensation, formation of membrane blebs and apoptotic bodies).

Each structure is given as a SMILES string. Read-outs that look alike come from different tables or passages of the source.

For the compound `COc1ccc2c(c1OC)C(=O)O[C@@H]2[C@H]1c2c(cc3c(c2OC)OCO3)CCN1C` [Nos, (S)-6,7-dimethoxy-3-((R)-4-methoxy-6-methyl-5,6,7,8-tetrahydro[1,3]-dioxolo-[4,5-g]isoquinolin-5-yl)isobenzo-furan-1(3H)-one, reference compound], the IC50 was 36.3 ± 1.8 µM with MDA-MB-231 cells [1]; 16.6 ± 2.4 µM in the experiment with CEM cells; 39.6 ± 2.2 µM in the experiment with MCF-7 cells [4] (Homo sapiens, MCF7, 72 h). Besides, the dissociation constant (Kd) on tubulin [2] was 144 ± 2.8 µM. Further, in the experiment with tubulin [3], the “microtubule polymerization upon binding tubulin” value is “does not significantly promote or inhibit microtubule polymerization”. For the same compound, the G0/G1 in the experiment with MCF-7 cells [5] (0 h) stood at 54.8 ± 0.03%; in the experiment on MCF-7 cells [5] (24 h) it was 18.3 ± 3.3%; with MCF-7 cells [5] (48 h), 19.8 ± 1.9%; in the experiment on MCF-7 cells [5] (72 h), 20.5 ± 0.2%. Also, the G2/M in the experiment with MCF-7 cells [5] (0 h) was determined as 29.9 ± 2.2%; with MCF-7 cells [5] (24 h), 50.2 ± 3.6%; in the experiment on MCF-7 cells [5] (48 h) it was 28.07 ± 0.2%; in the experiment with MCF-7 cells [5] (72 h), 26.3 ± 0.2%. For the same compound, the S in the experiment with MCF-7 cells [5] (0 h) turned out to be 13.2 ± 0.2%; in the experiment with MCF-7 cells [5] (24 h), 3.4 ± 0.8%; with MCF-7 cells [5] (48 h), 4.1 ± 0.6%; with MCF-7 cells [5] (72 h), 7.06 ± 0.2%. Moreover, the Sub-G1 in the experiment with MCF-7 cells [5] (0 h) turned out to be 0.2 ± 0.03%; in the experiment on MCF-7 cells [5] (24 h) it was 10.2 ± 1.2%; in the experiment on MCF-7 cells [5] (48 h), 36.8 ± 3.7%; in the experiment with MCF-7 cells [5] (72 h), 36.9 ± 0.2%.

For `COc1cc([C@@H]2c3cc4c(cc3[C@@H](O[C@@H]3O[C@@H]5CO[C@@H](c6cccs6)O[C@H]5[C@H](O)[C@H]3O)[C@H]3COC(=O)[C@H]23)OCO4)cc(OC)c1O` [teniposide], the resistance to teniposide in the experiment with CEM/VM-1-5 cells was 400 fold.

`CC[C@]1(O)C[C@@H]2CN(CCc3c([nH]c4ccccc34)[C@@](C(=O)OC)(c3cc4c(cc3OC)N(C)[C@H]3[C@@](O)(C(=O)OC)[C@H](OC(C)=O)[C@]5(CC)C=CCN6CC[C@]43[C@@H]65)C2)C1` [vinblastine]: the resistance to vinblastine with CEM/VLB100 cells was 270 fold.

Turning to `COc1ccc2c(c1OC)C(=O)OC2C1c2c(c(Cl)c3c(c2OC)OCO3)CCN1C` (centres unmarked) [9-Cl-nos], the half-maximal inhibitory concentration (IC50) in the experiment with MDA-MB-231 cells [1] stood at 1.9 ± 0.3 µM; with CEM cells, 1.2 ± 0.3 µM; in the experiment on MCF-7 cells [4] (Homo sapiens, MCF7, 72 h) it was 1.9 ± 0.3 µM; with MCF-7 cells [4], 3.5 ± 0.4 µM. Also, the Kd at tubulin [6] and at tubulin [2] was 40 ± 8 µM in each case. Besides, the “nuclear morphology (features of apoptotic cells), DAPI” value in the experiment with MDA-MB-231 cells [7] is “condensed chromosomes, numerous fragmented micronuclei, and apoptotic bodies are evident”. Moreover, the G0/G1 turned out to be 69 ± 5.6% with MCF-7 cells [5] (0 h), 11.5 ± 2.7% in the experiment on MCF-7 cells [5] (24 h), 8 ± 3.3% in the experiment on MCF-7 cells [5] (48 h) and 5.9 ± 1.9% in the experiment with MCF-7 cells [5] (72 h). Moreover, the G2/M is listed as 20.7 ± 3.4% with MCF-7 cells [5] (0 h), 59.7 ± 5.2% with MCF-7 cells [5] (24 h), 42.4 ± 3.8% in the experiment with MCF-7 cells [5] (48 h) and 35.3 ± 3.9% in the experiment on MCF-7 cells [5] (72 h). The S with MCF-7 cells [5] (0 h) is listed as 7.5 ± 1.6%; with MCF-7 cells [5] (24 h), 4.3 ± 1.4%; with MCF-7 cells [5] (48 h) it was 4 ± 1.1%; in the experiment with MCF-7 cells [5] (72 h) it was 4.1 ± 1.4%. In addition, the Sub-G1 was found to be 1.4 ± 0.5% in the experiment with MCF-7 cells [5] (0 h), 15.3 ± 2.5% in the experiment with MCF-7 cells [5] (24 h), 37.8 ± 3.2% in the experiment with MCF-7 cells [5] (48 h) and 50.2 ± 2.5% in the experiment with MCF-7 cells [5] (72 h). Besides, the “percent sub-G1 cells compared with noscapine” value in the experiment with MCF-7 cells [5] (MCF-7, lower doses (5 μM and 10 μM), 72 hours) is recorded as “higher”.
